Test results published in patent US20250281457A1, “TREATMENT OR PREVENTION OF DENGUE VIRAL INFECTION” (Janssen Pharmaceuticals, Inc., priority 2022, published 2025).

Key:
[1] = Safety and tolerability, adverse events (Example 5); assay type: in vivo, human
Description: Safety and tolerability of Compound (a) was evaluated throughout the study, as described in Example 1.

[2] = Safety and tolerability, adverse events (Example 1); assay type: in vivo, human
Description: Safety and tolerability of Compound (a) was evaluated throughout the study, by recording the adverse events (AE) and their grade, as reported by the participants. An AE is any untoward medical occurrence in a subject administered the pharmaceutical formulation comprising Compound (a). […] An AE can therefore be any unfavorable and unintended sign (including an abnormal finding), symptom, or disease temporally associated with the use of the pharmaceutical formulation comprising Compound (a), whether or not related to the administration of the pharmaceutical formulation comprising Compound (a) (definition per International Conference on Harmonisation [ICH].) This includes any occurrence that is new in onset or aggravated in severity or frequency from the baseline condition, or abnormal results of diagnostic procedures, including laboratory test abnormalities. Grade refers to the severity of the AE, according to the below guideline: • Grade 1 Mild: transient or mild discomfort (<48 hours); no medical intervention/therapy required. • Grade 2 Moderate: mild to moderate limitation in activity; some assistance may be needed; no or minimal medical intervention/therapy required. • Grade 3 Severe: marked limitation in activity; some assistance usually required; medical intervention/therapy required; hospitalizations possible. • Grade 4 Potentially Life-threatening: Extreme limitation in activity; significant assistance required; significant medical intervention/therapy required; hospitalization or hospice care probable. All reported AEs with onset during the treatment phase and AEs that have worsened since baseline (ie, treatment-emergent AEs (TEAEs)) were included in the analysis.

[3] = Panel 1 (400 mg fasted: Treatment A oral solution and Treatment B SF1b)
[4] = Panels 1 and 2 (400 mg fasted; oral solution, SF1b, SF2b)

COc1cc(NC(C(=O)c2c[nH]c3ccc(OC(F)(F)F)cc23)c2ccc(Cl)cc2OC)cc(S(C)(=O)=O)c1 (stereo not drawn) [Compound (a)]
Related adverse events ([1]; Panel I (LD 450 mg twice daily for two days, MD 900 mg Q7D)): no related AEs | Related adverse events ([1]; Panel II (LD 450 mg twice daily for two days, MD 450 mg Q3D or Q4D)): one Grade 1 AE of skin burning sensation considered related | Related adverse events ([1]; Panel III (LD 150 mg twice daily for two days, MD 300 mg Q7D)): no related AEs | Related adverse events ([1]; Panel IV (LD 150 mg twice daily for two days, MD 150 mg Q3D or Q4D)): two Grade 1 AE of pruritic rash considered related | Grade 2 Treatment Emergent Events, overall ([1]; Panels I-IV): 4 | Grade 3 Treatment Emergent Events, overall ([1]; Panels I-IV): No | Safety and tolerability, overall conclusion ([1]; Panels I-IV): safe and well tolerated | serious adverse events (SAEs) or/and serious unexpected adverse reactions (SUSARs) observed ([1]; Panels I-IV): No | Related adverse events, Grade 1 [2, 3]: two Grade 1 AEs of throat irritation and dermatitis on one subject, and throat irritation and dermaturia in another subject | Related adverse events, Grade 2 [2, 3]: one Grade 2 AE of headache and dermatitis | Related adverse events, Grade 1 ([2]; Panel 2 (400 mg fasted: Treatment A oral solution and Treatment C SF2b)): two Grade 1 AEs of headache and dermatitis each in one subject | Grade 1 Treatment Emergent Events, overall [2, 4]: 11 | Grade 2 Treatment Emergent Events, overall [2, 4]: 7 | Grade 3 Treatment Emergent Events, overall [2, 4]: One | Grade 4 Treatment Emergent Events, overall [2, 4]: No
